Experiments:
HER2/Neu protein = assay: HER2 degradation assay; format: cell-based; details: Homo sapiens; 50% degradation of HER2/Neu protein, MCF7 cells, 16 h
Method: MCF7 breast carcinoma cells (ATCC) were grown in Dulbecco's modified Eagle's medium (DMEM) containing 10% fetal bovine serum (FBS) and 10 mM HEPES, and plated in 24 well plates (50% confluent). Twenty-four hrs later (cells are 65-70% confluent), test compounds were added and incubated overnight for 16 h. […] The wells were washed with 1 mL phosphate buffered saline (PBS), and 200 μL trypsin was added to each well. After trypsinization was complete, 50 μL of FBS was added to each well. Then 200 μL cells was transferred to 96 well plates. The cells were pipetted up and down to obtain a single cell suspension. The plates were centrifuged at 2,500 rpm for 1 min using a Sorvall Legend RT™ tabletop centrifuge (Kendro Laboratory Products, Asheville, N.C.). The cells were then washed once in PBS containing 0.2% BSA and 0.2% sodium azide (BA buffer). Phycoerythrin (PE) conjugated anti HER2/Neu antibody (Becton Dickinson, #340552), or PE conjugated anti-keyhole limpet hemocyanin [KLH] (Becton Dickinson, #340761) control antibody was added at a dilution of 1:20 and 1:40 respectively (final concentration was 1 μg/mL) and the cells were pipeted up and down to form a single cell suspension, and incubated for 15 mins. The cells were washed twice with 200 μL BA buffer, and resuspended in 200 μL BA buffer, and transferred to FACSCAN tubes with an additional 250 μL BA buffer. Samples were analyzed using a FACSCalibur™ flow cytometer (Becton Dickinson, San Jose, Calif.) equipped with Argon-ion laser that emits 15 mW of 488 nm light for excitation of the PE fluorochrome. 10,000 events were collected per sample. A fluorescence histogram was generated and the mean fluorescence intensity (MFI) of each sample was determined using Celiquest software. The background was defined as the MFI generated from cells incubated with control IgG-PE, and was subtracted from each sample stained with the HER2/Neu antibody. Cells incubated with DMSO were used as untreated controls since the compounds were resuspended in DMSO. Percent degradation of HER2 was calculated as follows: % HER2 degraded=[(MF1 untreated cells−MF1 treated cells)/MF1 untreated cell]×100
IC50 is defined as the concentration at which there was 50% degradation of the HER2/Neu protein.

[1] = system: rHSP90 in the MCF7 cell lysates; assay: Cell lysate binding assay; details: 50% inhibition of biotin-GM binding to rHSP90 in MCF7 cell lysates
Method: Cell Lysate Binding Assay
MCF7 breast carcinoma cell lysates were prepared by douncing in lysing buffer (20 mM HEPES, pH 7.3, 1 mM EDTA, 5 mM MgCl2, 100 mM KCl), and then incubated with or without test compound for 30 mins at 4° C., followed by incubation with biotin-GM linked to BioMag™ streptavidin magnetic beads (Qiagen) for 1 hr at 4° C. The tubes were placed on a magnetic rack, and the unbound supernatant removed. The magnetic beads were washed three times in lysis buffer and boiled for 5 mins at 95° C. in SDS-PAGE sample buffer. Samples were analyzed on SDS protein gels, and Western blots were done for rHSP90. Bands in the Western Blots were quantitated using the Bio-rad Fluor-S MultiImager, and the % inhibition of binding of rHSP90 to the biotin-GM was calculated.
The IC50 reported is the concentration of test compound needed to achieve 50% inhibition of the biotin-GM binding to rHSP90 in the MCF7 cell lysates.

[2] = system: MCF7 breast carcinoma cells; assay: MTS assay; format: cell-based; details: Homo sapiens, 50% reduction in viable cell number
Method: MTS assays measure the cytotoxicity of geldanamycin derivatives. MTS (3-(4,5-dimethylthiazol-2-yl)-5-(3-carboxymethoxyphenyl)-2-(4-sulfophenyl)-2H-tetrazolium) is a tetrazolium dye that is converted to a formazan product by dehydrogenase enzymes of metabolically active cells (Corey, A. et al. “Use of an aqueous soluble tetrazolium/formazan assay for cell growth assays in culture,” Cancer Commun. 1991, 3, 207-212). Cells were seeded in 96 well plates at 2000 cells/well and allowed to adhere overnight in Dulbecco's modified Eagle's medium supplemented with 10% fetal bovine serum. The final culture volume was 100 μl. Viable cell number was determined by using the Celltiter 96 AQueous Non-radioactive Cell Proliferation Assay (Promega, Madison Wis.). The MTS /PMS (phenazine methosulfate) solution was mixed at a ratio of 20:1, and 20 μL was added per well to 100 μl of culture medium. After 2-4 hours, the formation of the formazan product was measured at 490 nm absorbance using a multiwell plate spectrophotometer. Background was determined by measuring the Abs 490 nm of cell culture medium and MTS-PMS in the absence of cells and was subtracted from all values. Percent viable cells was calculated as follows: % viable cells=(Abs at 490 nm treated cells/Abs at 490 nm untreated cells)×100
The effect of selected compounds of the invention on MCF7 breast carcinoma cells according to the MTS assay is summarized in Table 2. IC50 was defined as the concentration of the compound which gave rise to 50% reduction in viable cell number.

IC50 (HER2/Neu protein) | IC50 [1] | IC50 [2] | SMILES
450 nM | – | – | COc1c(C)cnc(CN2C(=O)Cc3c(Cl)nc(N)nc32)c1C
95 nM | 150 nM | 300 nM | COc1c(C)cnc(Cn2ccc3c(Cl)nc(N)nc32)c1C [Example 5, 4-Chloro-7-(4-methoxy-3,5-dimethyl-pyridin-2-ylmethyl)-7H-pyrrolo[2,3-d]pyrimidin-2-ylamine]
23 nM | – | 100 nM | COc1c(C)c[n+]([O-])c(Cn2ccc3c(Cl)nc(N)nc32)c1C [Example 8, 4-Chloro-7-(4-methoxy-3,5-dimethyl-1-oxy-pyridin-2-ylmethyl)-7H-pyrrolo[2,3-d]pyrimidin-2-ylamine]
250 nM | – | 600 nM | COc1c(C)c(Cl)nc(Cn2ccc3c(Cl)nc(N)nc32)c1C [Example 10, 4-Chloro-7-(6-chloro-4-methoxy-3,5-dimethyl-pyridin-2-ylmethyl)-7H-pyrrolo [2,3-d]pyrimidin-2-ylamine]
80 nM | 90 nM | 200 nM | Cc1cnc(Cn2ccc3c(Cl)nc(N)nc32)c(C)c1Cl [Example 11, 4-Chloro-7-(4-chloro-3,5-dimethyl-pyridin-2-ylmethyl)-7H-pyrrolo[2,3-d]pyrimidin-2-ylamine]
50 nM | 90 nM | 1000 nM | Cc1cnc(Cn2ccc3c(Cl)nc(N)nc32)c(C)c1Br [Example 13, 7-(4-Bromo-3,5-dimethyl-pyridin-2-ylmethyl)-4-chloro-7H-pyrrolo[2,3-d]pyrimidin-2-ylamine]
38 nM | 50 nM | 1000 nM | Cc1c[n+]([O-])c(Cn2ccc3c(Cl)nc(N)nc32)c(C)c1Cl [Example 14, 4-Chloro-7-(4-chloro-3,5-dimethyl-1-oxy-pyridin-2-ylmethyl)-7H-pyrrolo[2,3-d]pyrimidin-2-ylamine]
15 nM | 30 nM | 23 nM | Cc1c[n+]([O-])c(Cn2ccc3c(Cl)nc(N)nc32)c(C)c1Br [Example 15, 7-(4-Bromo-3,5-dimethyl-1-oxy-pyridin-2-ylmethyl)-4-chloro-7H-pyrrolo[2,3-d]pyrimidin-2-ylamine]
42 nM | – | 1000 nM | COc1c(C)c[n+]([O-])c(Cn2ccc3c(Br)nc(N)nc32)c1C [Example 20, 4-Bromo-7-(4-methoxy-3,5-dimethyl-1-oxy-pyridin-2-ylmethyl)-7H-pyrrolo[2,3-d]pyrimidin-2-ylamine]
170 nM | – | > 10000 nM | Cc1cnc(Cn2ccc3c(Br)nc(N)nc32)c(C)c1Cl [Example 21, 4-Bromo-7-(4-chloro-3,5-dimethyl-pyridin-2-ylmethyl)-7H-pyrrolo[2,3-d]pyrimidin-2-ylamine]
65 nM | – | 1000 nM | Cc1c[n+]([O-])c(Cn2ccc3c(Br)nc(N)nc32)c(C)c1Cl [Example 22, 4-Bromo-7-(4-chloro-3,5-dimethyl-1-oxy-pyridin-2-ylmethyl)-7H-pyrrolo[2,3-d]pyrimidin-2-ylamine]
130 nM | – | > 10000 nM | Cc1cnc(Cn2ccc3c(Br)nc(N)nc32)c(C)c1Br [Example 23, 4-Bromo-7-(4-bromo-3,5-dimethyl-pyridin-2-ylmethyl)-7H-pyrrolo[2,3-d]pyrimidin-2-ylamine]
25 nM | – | 300 nM | Cc1c[n+]([O-])c(Cn2ccc3c(Br)nc(N)nc32)c(C)c1Br [Example 24, 4-Bromo-7-(4-bromo-3,5-dimethyl-1-oxy-pyridin-2-ylmethyl)-7H-pyrrolo[2,3-d]pyrimidin-2-ylamine]
150 nM | – | > 10000 nM | COc1c(C)cnc(Cn2ccc3c(Br)nc(N)nc32)c1C [Example 25, 4-Bromo-7-(4-methoxy-3,5-dimethyl-pyridin-2-ylmethyl)-7H-pyrrolo[2,3-d]pyrimidin-2-ylamine]
130 nM | – | – | COc1c(C)cnc(Cn2cc(C(C)C)c3c(Cl)nc(N)nc32)c1C [Example 43, 4-Chloro-5-isopropyl-7-(4-methoxy-3,5-dimethyl-pyridin-2-ylmethyl)-7H-pyrrolo[2,3-d]pyrimidin-2-ylamine]
20 nM | – | – | Cc1c[n+]([O-])c(Cn2cc(C(C)C)c3c(Cl)nc(N)nc32)c(C)c1Cl [Example 45]
1500 nM | – | – | Cc1cnc(CN2C(=O)Cc3c(Cl)nc(N)nc32)c(C)c1Cl [Example 48, 2-Amino-4-chloro-7-(4-chloro-3,5-dimethyl-pyridin-2-ylmethyl)-5,7-dihydro-pyrrolo[2,3-d]pyrimidin-6-one]
180 nM | – | 900 nM | COc1c(C)c[n+]([O-])c(CN2C(=O)Cc3c(Cl)nc(N)nc32)c1C [Example 49, 2-Amino-4-chloro-7-(3,5-dimethyl-4-methoxy-1-oxy-pyridin-2-ylmethyl)-5,7-dihydro-pyrrolo[2,3-d]pyrimidin-6-one]
400 nM | – | 10000 nM | COc1cc(CN2C(=O)Cc3c(Cl)nc(N)nc32)c(Br)c(OC)c1OC [Example 52, 2-Amino-4-chloro-7-(2-bromo-3,4,5-trimethoxy-benzyl)-5,7-dihydro-pyrrolo[2,3-d]pyrimidin-6-one]

— patent US20050107343A1, “Pyrrolopyrimidines and related analogs as HSP90-inhibitors” (Conforma Therapeutics Corporation, priority 2003, published 2005)
